Columns and labels:
[1] = target: T1, human 5-HT7b receptor (Homo sapiens, UniProt P34969); assay: GPCR radioligand binding assay, [3H]-5-CT displacement, HEK293 membranes; settings: for 5-HT7 % Inhibition by plate position: 10 µM; for %inh 5-HT7 average: average of exp_1 and exp_2; for %inh 5-HT7 exp_1: replicate exp_1; for %inh 5-HT7 exp_2: replicate exp_2
T1 construct: expressed in transfected cells

[2] = target: T2, human 5-HT1A receptor (Homo sapiens, UniProt P08908); assay: GPCR radioligand binding assay, [3H]-8-OH-DPAT displacement, HEK293 membranes; settings: for 5-HT1A % Inhibition by plate position: 10 µM; for %inh 5-HT1A average: average of exp_1 and exp_2; for %inh 5-HT1A exp_1: replicate exp_1; for %inh 5-HT1A exp_2: replicate exp_2; for %inh 5-HT1A corrected*: average, values below 0 and above 100% were set as 0 and 100
T2 construct: expressed in transfected cells
T2 sequence (P08908 1-422): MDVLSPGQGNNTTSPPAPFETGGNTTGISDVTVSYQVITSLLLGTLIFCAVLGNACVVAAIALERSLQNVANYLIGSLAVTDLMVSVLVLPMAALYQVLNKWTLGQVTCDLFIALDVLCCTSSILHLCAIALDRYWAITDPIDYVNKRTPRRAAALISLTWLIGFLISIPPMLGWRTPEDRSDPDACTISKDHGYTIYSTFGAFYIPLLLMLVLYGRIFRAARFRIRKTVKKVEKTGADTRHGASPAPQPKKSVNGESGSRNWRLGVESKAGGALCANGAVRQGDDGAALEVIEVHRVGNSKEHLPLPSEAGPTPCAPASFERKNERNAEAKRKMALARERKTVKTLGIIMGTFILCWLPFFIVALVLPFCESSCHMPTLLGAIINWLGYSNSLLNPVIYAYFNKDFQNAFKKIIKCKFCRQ

[3] = target: T3, human 5-HT6 receptor (Homo sapiens, UniProt P50406); assay: GPCR radioligand binding assay, [3H]-LSD displacement, HEK293 membranes; settings: for 5-HT6 % Inhibition by plate position: 10 µM; for %inh 5-HT6 average: average of exp_1 and exp_2; for %inh 5-HT6 corrected*: average, values below 0 and above 100% were set as 0 and 100; for %inh 5-HT6 exp_1: replicate exp_1; for %inh 5-HT6 exp_2: replicate exp_2
T3 construct: expressed in transfected cells
T3 sequence (P50406 whole entry): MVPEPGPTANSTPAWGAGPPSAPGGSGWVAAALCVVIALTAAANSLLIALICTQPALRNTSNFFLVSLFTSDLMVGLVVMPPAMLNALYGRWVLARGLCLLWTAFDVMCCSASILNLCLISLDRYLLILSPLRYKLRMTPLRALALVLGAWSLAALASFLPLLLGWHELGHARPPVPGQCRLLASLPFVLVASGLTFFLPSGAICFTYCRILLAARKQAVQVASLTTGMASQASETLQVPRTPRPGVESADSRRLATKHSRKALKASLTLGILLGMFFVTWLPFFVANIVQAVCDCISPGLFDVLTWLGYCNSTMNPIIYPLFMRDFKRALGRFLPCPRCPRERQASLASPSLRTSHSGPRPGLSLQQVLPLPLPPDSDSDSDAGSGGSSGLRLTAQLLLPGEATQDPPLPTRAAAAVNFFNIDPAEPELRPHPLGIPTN

T1 sequence (P34969 1-432): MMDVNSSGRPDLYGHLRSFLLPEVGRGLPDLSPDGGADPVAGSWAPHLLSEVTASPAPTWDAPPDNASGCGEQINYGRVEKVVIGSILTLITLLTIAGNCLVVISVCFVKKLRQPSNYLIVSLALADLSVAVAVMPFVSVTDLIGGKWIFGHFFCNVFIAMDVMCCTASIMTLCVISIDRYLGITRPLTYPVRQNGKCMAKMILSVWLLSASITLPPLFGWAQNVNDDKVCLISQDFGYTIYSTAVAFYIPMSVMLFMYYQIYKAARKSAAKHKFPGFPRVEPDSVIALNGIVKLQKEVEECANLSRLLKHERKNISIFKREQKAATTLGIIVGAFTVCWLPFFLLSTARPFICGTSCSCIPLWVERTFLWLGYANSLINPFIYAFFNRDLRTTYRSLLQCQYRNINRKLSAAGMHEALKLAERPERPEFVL

| Structure (SMILES) | 5-HT7 % Inhibition by plate position [1] [%] | %inh 5-HT7 average [1] [%] | %inh 5-HT7 exp_1 [1] [%] | %inh 5-HT7 exp_2 [1] [%] | 5-HT1A % Inhibition by plate position [2] [%] | %inh 5-HT1A average [2] [%] | %inh 5-HT1A exp_1 [2] [%] | %inh 5-HT1A exp_2 [2] [%] | 5-HT6 % Inhibition by plate position [3] [%] | %inh 5-HT6 average [3] [%] | %inh 5-HT6 corrected* [3] [%] | %inh 5-HT6 exp_1 [3] [%] | %inh 5-HT6 exp_2 [3] [%] | %inh 5-HT1A corrected* [2] [%] |
| --- | --- | --- | --- | --- | --- | --- | --- | --- | --- | --- | --- | --- | --- | --- |
| COc1ccc(CN2CCNCC2)cc1F [D11] | 0 | -0.31 | -5 | 4.58 | 0 | -7 | 10 | -23 | 41 | 41 | 41 | 45 | 38 |  |
| COc1ccccc1N1CCNCC1 [A10] | 72 |  | 67 | 76 | 100 | 102 | 101 | 103 | 69 | 69 | 69 | 80 | 58 |  |
| NC(c1ccccc1)c1ccccc1 [C3] | 0 | -9 | -16 | -1 | 0 | -12 | -22 | -1.84 | 25 | 25 | 25 | 16 | 33 |  |
| N[C@H]1c2ccccc2C[C@H]1CO [B5] | 6 |  | 14 | -1 | 0 | -0.612 | -19 | 18 | 25 | 25 | 25 | 25 | 25 |  |
| Brc1ccc(-c2ccon2)cc1 [A9] | 5.57 |  | 1.16 | 10 |  | 3.49 | 4 | 3 | 34 | 34 | 34 | 40 | 29 | 3.49 |
| Oc1cnc(-c2ccccc2)nc1 [F11] | 0.572 |  | -8 | 9 |  | 6.48 | 14 | -1.43 | 41 | 41 | 41 | 42 | 39 | 6.48 |
| CC1C(=O)NC(=O)N1c1ccc(Cl)cc1 (stereo not shown) [E3] | 17 |  | 19 | 14 | 0 | -4 | 5 | -13 | 43 | 43 | 43 | 41 | 44 |  |
| Cn1c(CO)nc2ccccc21 [G2] | 5 |  | 10 | 0.167 | 0 | -5 | 12 | -22 | 37 | 37 | 37 | 37 | 38 |  |
| COc1cccc(NC2=NCCCCC2)c1 [E8] | 0 | -5 | 3.36 | -13 |  | 11 | 11 | 11 | 14 | 14 | 14 | 17 | 12 | 11 |
| Oc1ccc(C2CCNCC2)cc1 [E11] | 11 |  | 10 | 12 |  | 5.37 | 3 | 8 | 43 | 43 | 43 | 44 | 42 | 5.37 |
| CCc1ccc(NC2=NCCCS2)cc1 [D2] | 6 |  | 12 | 0.291 |  | 29 | 30 | 27 | 16 | 16 | 16 | 19 | 13 | 29 |
| O=C1CNCCN1c1ccccc1 [B2] | 0 | -2.46 | 14 | -19 |  | 4.62 | 9 | 0 | 47 | 47 | 47 | 50 | 44 | 4.62 |
| Nc1ccc(SC(F)F)cc1 [D1] | 8 |  | 5.58 | 10 | 0 | -16 | -6.6 | -25 | 45 | 45 | 45 | 52 | 38 |  |
| O=C1CC(CSc2ccc(Cl)cc2)=NN1 [H8] | 0 | -7 | -1 | -14 | 0 | -0.353 | -4 | 3.38 | 12 | 12 | 12 | 9 | 14 |  |
| N#CC1CCS(=O)(=O)C1 (stereo not shown) [F2] | 20 |  | 21 | 19 | 0 | -0.934 | 12 | -14 | 22 | 22 | 22 | 22 | 22 |  |
| O=C1NC(=O)C2(CCc3ccccc32)N1 (stereo not shown) [B7] | 3.8 |  | 10 | -2.31 | 0 | -12 | -22 | -1.44 | 32 | 32 | 32 | 32 | 31 |  |
| c1ccc2oc(C3CCCNC3)nc2c1 (stereo not shown) [D10] | 0 | -0.305 | -4 | 3.22 |  | 78 | 77 | 80 | 25 | 25 | 25 | 22 | 28 | 78 |
| CS(=O)(=O)c1ccc(N2CCNCC2)cc1 [B1] | 35 |  | 29 | 40 |  | 4.22 | 8.43 | 0 | 28 | 28 | 28 | 28 | 28 | 4.22 |
| Clc1ccc2nnnn2n1 [E6] | 0 | -13 | -5 | -20 |  | 3.55 | 3.18 | 4 | 35 | 35 | 35 | 38 | 31 | 3.55 |

Source: article PMC8159961, “Exploring protein hotspots by optimized fragment pharmacophores” (Nature Communications, 2021)
